In brackets after ≈: the same amount, converted by molar mass. Read-outs that look alike come from different tables or passages of the source.
Experiments:
[1] = tested on: MCF7 cells; experiment: Antiproliferative MTT assay, 72 h; format: cell-based, human; conditions: for antiproliferative activity (in words): MCF7, 10 and 30 μM; for inhibition of the proliferation: MCF7, 30 μM
Excerpt: (§1) Human adherent cancer cell lines A2780, MDA-MB-231 and MCF-7 were obtained from ECACC (European Collection of Cell Cultures, Salisbury, UK; Cat. No.93112519, 92020424, 86012803, respectively). SiHa cell line was obtained from ATCC (American Tissue Culture Collection, Manassas, Virginia, USA; Cat. No. HTB-35). All cell lines used for antiproliferative assay were maintained in Eagle's Minimum Essential Medium (EMEM) completed with 10% fetal bovine serum (FBS), 1% non-essential amino acid solution, and 1% penicillin, streptomycin, and amphotericin B mixture under cell culture conditions described before. All the utilized media and supplements were purchased from Lonza Group Ltd. (Basel, Switzerland).
(§2) The antiproliferative actions of the prepared molecules were determined by the same assay against a panel of adherent human cancer cell lines containing cervical (SiHa), ovarian (A2780) and breast (MCF7, MDA-MB-231) cell lines. Cells were plated onto 96-well microplates (5000 cells/well) and after an overnight incubation treated with two concentrations (10 or 30 μM) of the test substances for 72 h under cell culture conditions. Subsequently, MTT (5 mg/ml in phosphate buffer) was added to the wells, followed by incubation for 4 h. The supernatant was removed, the formazan crystals were then dissolved in 100 µl DMSO. Finally, absorbance values were determined by a microplate reader (BMG Labtech, Ortenberg, Germany) at 545 nm. Two independent measurements were performed with five parallel wells. Results were expressed as percentage of cell proliferation inhibition compared to non-treated control samples regarded as 0%.

[2] = tested on: A2780 cells; experiment: Antiproliferative MTT assay, 72 h; format: cell-based, human; conditions: for antiproliferative activity (in words): A2780, 10 and 30 μM
Excerpt: as §1, §2

[3] = tested on: SiHa cells; experiment: Antiproliferative MTT assay, 72 h; format: cell-based, human; conditions: for antiproliferative activity (in words): 10 and 30 μM
Excerpt: as §1, §2

[4] = tested on: MDA-MB-231 cells; experiment: Antiproliferative MTT assay, 72 h; format: cell-based, human; conditions: for antiproliferative activity (in words): MDA-MB-231, 10 and 30 μM
Excerpt: as §1, §2

[5] = tested on: Staphylococcus epidermidis mecA; experiment: MIC, broth micro dilution
Method: (§5) According to CLSI guideline the Minimal Inhibitory Concentrations (MICs) of the prepared compounds were determined with the broth micro dilution method. After an overnight growth on 5% bovine blood agar plates at 35 °C bacterial strains were suspended in physiological saline in order to reach the density of 0.5 McFarland for inoculation. Stock solutions containing different concentrations of the substances were prepared in DMSO and H2O (1:1). These were twofold serially diluted from 256 to 0.5 mg/l in Mueller–Hinton broth, and 100 ml of each dilution was inoculated with 10 ml of each bacterial suspension.

[6] = in vitro; conditions: African green monkey
[7] = tested on: Staphylococcus epidermidis biofilm forming; experiment: MIC, broth micro dilution
Method: as §5

[8] = tested on: MSSA (Methicillin Sensitive Staphylococcus aureus); experiment: MIC, broth micro dilution
[9] = tested on: SARS-CoV-2; experiment: SARS-CoV-2 cytopathic effect (CPE) inhibition assay in Vero E6 cells (XTT); format: cell-based; conditions: for EC50: Severe acute respiratory syndrome coronavirus 2, Vero C1008, 72 h, Vero E6 cells, 3 days post-infection, XTT; for IC50: Severe acute respiratory syndrome coronavirus 2, Vero C1008, read-out: IC50 (anti-SARS-CoV-2 activity, Figure 8)
Method: (§3) CBD and CBG derivatives were further tested for their ability to inhibit SARS-CoV-2 replication in Vero E6 cells. Initially, the inhibition of virus-induced cytopathic effect was measured by addition of twofold serial dilutions of each derivative to the cells, followed by the infection with SARS-CoV-2 and determination of the cell viability 3 days post-infection by XTT assay. Concurrently, the cytotoxicity of each compound was assessed from identical dilutions in uninfected Vero E6 cells. To confirm anti-SARS-CoV-2 activity in the CPE inhibition assay, selected compounds were tested in immunofluorescence assay, where inhibition of SARS-CoV-2 replication was monitored as reduction in nucleoprotein expression using fluorescence microscope. […] Among the CBG derivatives, we can find quite cytotoxic and non-cytotoxic derivatives as well.
(§4) For CPE-based assay, two-fold fold serial dilutions of compounds from 100 µM were added in triplicate in a 384-well plate with 5000 Vero E6 cells in DMEM medium with 2% FBS, 100 U of penicillin/ml and 100 µg of streptomycin/ml (all Merck). After 1 h incubation SARS-CoV-2 (strain hCoV-19/Czech Republic/NRL_6632_2/2020) was added at multiplicity of infection […]. Following three days incubation at 37 °C in 5% CO2 the cell viability was determined by addition of XTT solution (Sigma-Aldrich) for 4 h and the absorbance was measured using EnVision plate reader (Perkin Elmer). Drug concentrations required to reduce viral cytopathic effect by 50% (EC50) were calculated using nonlinear regression from plots of percentage cell viability versus log10 drug concentration using GraphPad Prism (version 9.0.0, GraphPad Software, LLC). For immunofluorescence assay, two-fold fold serial dilutions of compounds from 100 µM were added in triplicate in 96-well plate with 15,000 Vero E6 cells plated day before in the same medium as above. After 1 h incubation, SARS-CoV-2 was added at multiplicity of infection 0.05 IU/cell. After three days of incubation, cells were fixed with 4% paraformaldehyde, permeabilized with 0.2% Triton X100 (both Merck), washed, incubated with anti-SARS-CoV-2antibody (mouse monoclonal antibody detecting SARS-CoV-2 nucleoprotein) for 2 h at room temperature. Followed by 1.5 h incubation with Cy3-labeled donkey anti-mouse IgG (Jackson ImmunoResearch Europe) and documented using fluorescence microscope with camera (Olympus). Images were processed in ImageJ software (NIH) and compound concentrations required to reduce fluorescence by 50% (EC50s) were calculated from plots of percentage of fluorescent cells versus log10 drug concentration using nonlinear regression analysis as above. Cytotoxicity was evaluated by incubating with the same two-fold serial dilutions of each compound as above with Vero E6 cells in 384-well plate.

[10] = tested on: MRSA (Methicillin Resistant Staphylococcus aureus); experiment: MIC, broth micro dilution
[11] = tested on: SARS-CoV-2; experiment: SARS-CoV-2 immunofluorescence assay (nucleoprotein expression) in Vero E6 cells; format: cell-based; conditions: Severe acute respiratory syndrome coronavirus 2, Vero C1008, 72 h, three days
Method: as §3, §4

[12] = tested on: Enterococcus faecalis 51299 VanB; experiment: MIC, broth micro dilution
Method: as §5

[13] = tested on: Enterococcus faecalis 29 212; experiment: MIC, broth micro dilution
Method: as §5

[14] = tested on: Bacillus subtilis; experiment: MIC, broth micro dilution
Method: as §5

[15] = tested on: Enterococcus faecalis 15 376 VanA; experiment: MIC, broth micro dilution
[16] = Enterococcus faecalis, 51299VANB
[17] = Enterococcus faecalis, 15376VANA

| Structure (SMILES) | antiproliferative activity (in words) [1] | antiproliferative activity (in words) [2] | antiproliferative activity (in words) [3] | antiproliferative activity (in words) [4] | MIC ([5]; Staphylococcus epidermidis) [mg/L] | CC50 [6] [µM] | MIC ([7]; Staphylococcus epidermidis) [mg/L] | MIC ([8]; Staphylococcus aureus) [mg/L] | EC50 [9] [µM] | IC50 [9] [µM] | MIC ([10]; Staphylococcus aureus) [mg/L] | EC50 [11] [µM] | MIC [12, 16] [mg/L] | MIC ([13]; Enterococcus faecalis, 29212) [mg/L] | MIC [14] [mg/L] | MIC [15, 17] [mg/L] | further results |
| --- | --- | --- | --- | --- | --- | --- | --- | --- | --- | --- | --- | --- | --- | --- | --- | --- | --- |
| C=CCN1COc2c(c(CCCCC)c3c(c2C/C=C(\C)CCC=C(C)C)OCN(CC=C)C3)C1 [Compound 19b] | more active than CBG | more active than CBG | more active than CBG | more active than CBG |  |  |  |  |  |  |  |  |  |  |  |  |  |
| C=C(C)[C@@H]1CCC(C)=C[C@H]1c1c(O)cc(CCCCC)c2c1OCN(CCCC(=O)O)C2 [Compound 12] | None of the other tested CBD analogs (9, 11, and 12) exhibited substantial antiproliferative activity | None of the other tested CBD analogs (9, 11, and 12) exhibited substantial antiproliferative activity | None of the other tested CBD analogs (9, 11, and 12) exhibited substantial antiproliferative activity | None of the other tested CBD analogs (9, 11, and 12) exhibited substantial antiproliferative activity | > 256 | ~56 | > 256 | > 256 | 11 ± 1.2 | 11 | > 256 | 39 ± 1.4 | > 256 | > 256 | > 256 | > 256 |  |
| CCCCCc1cc(O)c(C/C=C(\C)CCC=C(C)C)c2c1CN(Cc1ccccc1)CO2 [Compound 17a] |  |  |  |  | > 256 | > 100 | > 256 | > 256 | > 100 | > 100 | > 256 |  | 64 (≈ 143 µM) | 64 (≈ 143 µM) | > 256 | > 256 |  |
| C=C(C)[C@@H]1CCC(C)=C[C@H]1c1c(O)cc(CCCCC)c2c1OCN(Cc1ccccc1)C2 [Compound 10] |  |  |  |  | > 256 | > 100 | > 256 | > 256 | 9 ± 0.51 | 9 | > 256 | ~42 | > 256 | > 256 | > 256 | > 256 | inhibition of the proliferation [1]: considerable growth inhibition |
| C=C(C)[C@@H]1CCC(C)=C[C@H]1c1c(O)c(CN(CC)CC)c(CCCCC)c(CN(CC)CC)c1O [Compound 13] |  |  |  |  | > 256 | 12 ± 0.28 | > 256 | > 256 | > 12 | > 12 | > 256 |  | > 256 | > 256 | > 256 | > 256 | inhibition of the proliferation (in words) ([1]; MCF7, 10 μM): no relevant action; inhibition of the proliferation [1]: similarly effective than CBD; inhibition of the proliferation (in words) ([2]; A2780, 10 μM): no relevant action; inhibition of the proliferation ([2]; A2780, 30 μM): similarly effective than CBD; inhibition of the proliferation (in words) ([3]; 10 μM): no relevant action; inhibition of the proliferation ([3]; 30 μM): similarly effective than CBD; inhibition of the proliferation (in words) ([4]; MDA-MB-231, 10 μM): no relevant action; inhibition of the proliferation ([4]; MDA-MB-231, 30 μM): similarly effective than CBD |
| CCCCCc1cc(O)c(C/C=C(\C)CCC=C(C)C)c2c1CN(CCCC(=O)O)CO2 [Compound 20] |  |  |  |  | > 256 | > 100 | > 256 | > 256 | > 100 | > 100 | > 256 |  | 128 (≈ 289 µM) | 64 (≈ 144 µM) | > 256 | 128 (≈ 289 µM) |  |
| CCCCCc1c2c(c(C/C=C(\C)CCC=C(C)C)c3c1CN(Cc1ccccc1)CO3)OCN(Cc1ccccc1)C2 [Compound 17b] | ineffectiveness | ineffectiveness | ineffectiveness | ineffectiveness |  |  |  |  |  |  |  |  |  |  |  |  |  |
| CCC(CC)COC(=O)[C@H](C)N[P@](=O)(OC[C@H]1O[C@@](C#N)(c2ccc3c(N)ncnn23)[C@H](O)[C@@H]1O)Oc1ccccc1 [Remdesivir, reference compound] |  |  |  |  |  | > 100 |  |  | 2.8 ± 0.18 |  |  | 1.2 ± 0.03 |  |  |  |  |  |
| C=C(C)[C@@H]1CCC(C)=C[C@H]1c1c(O)cc(CCCCC)c2c1OCN(CCCC)C2.Cl [Compound 8s] | no significant difference was detected | no significant difference was detected | no significant difference was detected | no significant difference was detected |  |  |  |  |  |  |  |  |  |  | 128 |  | MIC ([5]; Staphylococcus epidermidis mecA): 128 mg/L; MIC ([7]; Staphylococcus epidermidis biofilm forming): 128 mg/L; MIC [8]: 128 mg/L; MIC [10]: 128 mg/L; MIC ([12]; Enterococcus faecalis 51299 VanB): 2 mg/L; MIC ([13]; Enterococcus faecalis 29 212): 2 mg/L; MIC ([15]; Enterococcus faecalis 15 376 VanA): 128 mg/L |

Reference: paper PMC10638401, “Mannich-type modifications of (−)-cannabidiol and (−)-cannabigerol leading to new, bioactive derivatives” (Scientific Reports, 2023)
